Measured values as given in patent publication US5677349A, “Agmatine for the treatment of neurotrauma and neurodegenerative diseases” (priority 1995, dated 1997).
Counter-ions that a name gives are not always drawn. Like-named read-outs stand apart in the source and are kept apart here.

Tests used:
[1] = tested on: pyramidal neurons of the CA1 layer of the anterior hippocampus; assay: animal or person; format: in vivo
Protocol: Male mongolian gerbils, aged 2.5-5 months, housed 4-8 in a cage, are supplied freely with food and water and maintained at 24° C. with a 12 hour day/night cycle. For surgery, the animals are anesthetized with halothane (1.5% in 100% O2) and the common carotid arteries exposed bilaterally through a midline ventral neck incision. Each artery is clamped for 5 minutes with aneurysm clips to produce global brain ischemia. The anesthesia is discontinued upon clamping. After 5 minutes the clamps are removed and the wound closed with skin clips
For treatment, the test compound or saline (0.9% NaCl, vehicle) are injected intraperitoneally (ip) in a volume of 50 microliters of solvent per 10 g body weight. The first injection is given 5 minutes after clamp removal, and thereafter daily for the next 2 post-operative days (total of 3 injections).
Four general groups, each of 4-8 animals were compare:
1. Control (sham, or unoperated and vehicle treated);
2. Ischemia, untreated or vehicle treated;
3. Ischemia, test compound treated, one sub-group per concentration tested;
4. Ischemia and pentobarbital (40 mg/kg) as positive control.
Analysis of neuronal damage was performed 14 days post-ischemia by counting pyramidal neurons throughout the CA1 layer of the anterior hippocampus in 4 micrometer thick (paraffin) coronal brain sections, stained with hematoxylin eosin. Values of cell numbers in the hippocampi of individual gerbils were expressed as percent of intact controls (control cell counts were 275±25 cells/mm^2).
Percent Protection values represent the fraction of hippocampi protected from ischemia in a group of animals treated with the stated dose of compound.

[2] = Effect on nerve cell survival and toxicity in culture (dissociated neonatal rat cerebellum); format: cell-based; conditions: rat, cerebellar nerve cells
Protocol: (§1) A concentration-dependent (dose-response) effect on nerve cell survival was determined for each compound at a concentration range of 0.001-5000 micromolar (μM). The compounds were added to 3-day-old cultures and the effect was examined 24 hours later.
(§2) Nerve cell survival was evaluated by phase contrast microscopy and trypan blue exclusion staining.
(§3) The results, summarized in Table 1, show the compound concentrations at which 20% or more cells survived (Survival) relative to controls, and at which 50% of the cells died (TD50) when compared to controls. Control cultures were grown in enriched medium alone and represent 100% values.

[3] = tested on: nerve cell survival after NMDA neurotoxic challenge; assay: Reversal of N-methyl-D-aspartate induced cell death in culture; conditions: for Percent Protection: after NMDA, survival minus NMDA effect
Protocol: The cerebellum is aseptically dissociated from 6 or 7-day old rat pups and placed in a 15 ml sterile plastic conical tube containing 3 ml of Dulbecco's modified Eagle's medium containing high glucose concentration ([…]), 2 Mm (v/v) L-glutamine and an antibiotic mixture. The cerebella are then dissociated after 20-25 passages through a sterile 13 gauge, 10 cm long stainless steel needle attached to a 5 ml syringe with an inserted 45 micrometer pore nylon sieve. The dissociated cells are centrifuged at 200 g for 5 minutes. The supernatant is discarded and the cells resuspended in medium enriched with 15% (v/v) heat inactivated fetal calf serum. Cell viability is determined by the trypan blue exclusion test.
Cells are plated at a density of 200/mm^2 on poly-L-lysine coated surfaces which are prepared at least one hour in advance of plating by covering the surfaces (plastic Petri dishes or glass coverslips) with sterile distilled water solution containing 15 micrograms/ml poly-L-lysine, and washing in sterile water just prior to use. The plated cells are covered with enriched medium and incubated at 37° C. in an atmosphere of 5% CO2 in air and 97% humidity. After three days in culture, the media is replaced with media containing the desired compound. Each compound is tested in duplicate and each experiment repeated at least once.
Four groups were run in each set of experiments:
1. Control, consisting of cells grown in enriched media alone;
2. N-methyl-D-aspartate (NMDA, 1 Mm for 3 hours) as the cytotoxic challenge;
3. Test compound added after the NMDA challenge;
4. Positive control, spermine or spermidine (0.01 μM) after NMDA.
The number of surviving cells was examined 24 hours after the challenge. Surviving cells in culture are measured relative to control (100%) as described above. Percent Protection is the cell survival for the test compound minus the NMDA effect. […] The Effective Protection value was calculated as the percent of the Percent Protection (X) divide by the maximal protection value (e.g. X×100/70).

cell proliferation = assay: Toxicity and cell proliferation, general statement; format: cell-based
NMDA receptors = conditions: background; cited from earlier work
[4] = tested on: intracellular imidazoline receptors; conditions: background; cited from earlier work
nicotine receptors = conditions: background; cited from earlier work
[5] = animals; background; cited from earlier work
[6] = tested on: ADP-ribosylation of proteins; conditions: acts as ADP-ribose acceptor; background; cited from earlier work
nerve cell survival = assay: Effect on nerve cell survival and toxicity in culture (dissociated neonatal rat cerebellum); format: cell-based; conditions: 24 hours
Protocol: as §1, §2, §3

[7] = tested on: ischemia-induced nerve cell death; conditions: gerbils; Gilad et al. 1989, 1991, 1992; cited from earlier work
[8] = Meriones unguiculatus, Pyramidal neuron, ip, 336 h, read-out: Percent Protection
[9] = TD50 (concentration at which 50% of the cells died)
[10] = Rattus norvegicus, 24 h, read-out: Effective Protection
[11] = Rattus norvegicus, 24 h, read-out: Surviving Cells in Culture
[12] = 24 hours, 3-day-old cultures, read-out: TD50 (concentration at which 50% of the cells died)

Compound | responders at 10 mg/kg [1, 8] | CC50 at 24 h [2, 9] | Percent Protection ([3]; 10 μM) | Percent Protection ([3]; 50 μM) | inhibition at 10 µM [3, 10] | inhibition at 50 µM [3, 10] | viability at 10 µM [3, 11] | viability at 50 µM [3, 11] | CC50 at 24 h [2, 12] | Percent Protection ([3]; 0.01 μM) | inhibition at 0.01 µM [3, 10] | viability at 0.01 µM [3, 11] | also measured
Clc1ccc2c(c1)Nc1ccccc1S2 [2-Cl-phenothiazine] | 65% | 5 µM | 15% | 32% | 21% | 46% | 45% | 62% | – | – | – | – | –
C1C2CC3CC1CC(C2)C3 [Adamantane] | – | 1000 µM | 13% | 20% | 19% | 29% | 43% | 50% | – | – | – | – | responders at 50 mg/kg [1, 8]: 23%
N=C(N)NCCCCN [Agmatine, agmatine] | 20% | – | 35% | 51% | 50% | 73% | 65% | 81% | 500 µM | – | – | – | responders at 50 mg/kg [1, 8]: 50%; responders at 100 mg/kg [1, 8]: 75%; Toxicity (cell proliferation): relatively non-toxic; Cell proliferation (cell proliferation; at some concentrations): accelerates cell proliferation; Interaction with NMDA receptors (NMDA receptors): interaction with membrane receptors; Interaction with intracellular imidazoline receptors [4]: interaction with membrane receptors; Interaction with nicotine receptors (nicotine receptors): interaction with membrane receptors; Insulin-like effects [5]: produces insulin-like effects in animals; Effect on ADP-ribosylation of proteins [6]: inhibit ADP-ribosylation of proteins
Cl.Cl.NCCCCNCCCN1c2ccccc2Sc2ccc(Cl)cc21 [G102, 2-chloro-N-(4-aminobutyl)-10H-Phenothiazine-10-propanamine-2HCl] | – | – | – | 5% | – | 7% | – | 35% | – | – | – | – | toxic ([1]; 10 mg/kg ip, ischemic gerbils, n=10): 70%; responders at 1 mg/kg [1, 8]: 40%; responders at 5 mg/kg [1, 8]: 70%; Shape of dose-response curve for nerve cell survival (nerve cell survival): U-shaped dose-response curve; Percent Protection ([3]; 1 μM): 40%; Percent Protection ([3]; 250 μM): 65%; inhibition at 1 µM [3, 10]: 57%; inhibition at 250 µM [3, 10]: 93%; viability at 1 µM [3, 11]: 70%; viability at 250 µM [3, 11]: 95%
NCCCNCCCCNCCCN1c2ccccc2Sc2ccc(Cl)cc21 [G103, 2-chloro-N-[3-(8-spermidinyl)]-10H-Phenothiazine-10-propanamine.3 HCl] | – | – | – | – | – | – | – | – | 2 µM | 25% | 36% | 55% | lethality ([1]; 0.50 mg/kg ip, ischemic gerbils, n=5): lethal; responders at 0.01 mg/kg [1, 8]: 42%; responders at 0.1 mg/kg [1, 8]: 55%; Percent Protection ([3]; 0.10 μM): 2%; Percent Protection ([3]; 1 μM): -10%; inhibition at 0.1 µM [3, 10]: 3%; viability at 0.1 µM [3, 11]: 32%; viability at 1 µM [3, 11]: 20%
CNC1(C)C2CCC(C2)C1(C)C (centres unmarked) [Mecamylamine] | 40% | 500 µM | – | – | – | – | – | – | – | – | – | – | Percent Protection ([3]; 25 μM): 37%; inhibition at 25 µM [3, 10]: 53%; viability at 25 µM [3, 11]: 67%
CCCC(C)C1(CC)C(=O)NC(=O)NC1=O (centres unmarked) [Pentobarbital, pentobarbital] | – | – | – | – | – | – | – | – | – | – | – | – | responders at 40 mg/kg ([1]; Meriones unguiculatus, Pyramidal neuron, 336 h, read-out: Percent Protection): 87%
NCCCCN [Putrescine] | 35% | 300 µM | – | – | – | – | – | – | – | 0% | 0% | 30% | Effect against ischemia-induced nerve cell death [7]: protecting against ischemia-induced nerve cell death in gerbils; Percent Protection ([3]; 0.005 μM): 2%; inhibition at 0.005 µM [3, 10]: 3%; viability at 0.005 µM [3, 11]: 32%
C1CN2CCC1CC2 [Quinuclidine] | 15% | – | 10% | – | 14% | – | 40% | – | 100 µM | – | – | – | Percent Protection ([3]; 1 μM): 5%; inhibition at 1 µM [3, 10]: 7%; viability at 1 µM [3, 11]: 35%
NCCCCNCCCN [Spermidine] | 50% | – | – | – | – | – | – | – | 2 µM | 48% | 69% | 78% | Effect against ischemia-induced nerve cell death [7]: protecting against ischemia-induced nerve cell death in gerbils; Percent Protection ([3]; 0.005 μM): 0%; inhibition at 0.005 µM [3, 10]: 0%; viability at 0.005 µM [3, 11]: 30%
NCCCNCCCCNCCCN [Spermine] | 65% | – | – | – | – | – | – | – | – | 38% | 54% | 68% | CC50 at 24 h [2]: 2 µM; Effect against ischemia-induced nerve cell death [7]: protecting against ischemia-induced nerve cell death in gerbils; Percent Protection ([3]; 0.005 μM): -5%; viability at 0.005 µM [3, 11]: 25%
